Assay [1] addresses T1, human CB1 receptor (Homo sapiens, UniProt P21554).
T1 construct: expressed in transfected cells; host or cells: HEK293
Description: bioSensAll GAPL-Gi2 BRET biosensor assay in HEK293 cells transfected with hCB1; test compound added before EC75-80 of agonist CP55,940 (0.1 nM). The class given is cell-based. The following applies: vs CP55,940 0.1 nM (EC75-80), read-out: CB1 wt Gi2 IC50. How it is done: (§1) Using polyethylenimine (PEI) transfection agent, HEK293 cells were transfected in suspension with the human CB1 receptor and one of the following bioSensAll® assays: GAPL-Gi2, or β-arrestin plasma membrane (PM) translocation biosensor (+GRK2). Cells were directly seeded in 96-well plates immediately following transfection.
(§2) Cells were incubated with coelenterazine (luciferase substrate) and different test compounds prior to the measurement of BRET signals.
(§3) Used in this project are i) Gα plasma membrane (GAPL) biosensors and the ii) β-arrestin plasma membrane translocation biosensor.
i) GAPL sensors are used to monitor the activation of heterotrimeric G proteins at the plasma membrane upon receptor stimulation. Specifically, these multimolecular BRET sensors detect the plasma membrane recruitment of proteins that interact with active Gα subunits in a G protein family-selective manner. G protein activation following receptor stimulation generally leads to an increase in the BRET signal.
(§4) HEK293 cells were maintained in Dulbecco's Modified Eagle Medium (DMEM) (Wisent; cat #319-030-CL: without sodium pyruvate, with 4.5 g/L glucose, without L-glutamine) supplemented with 1% penicillin-streptomycin (Wisent; cat #450-201-EL) and 2 or 10% fetal bovine serum (Wisent cat #090150).
(§5) HEK293 cells were co-transfected with hCB1 and one of the above-listed bioSensAll® assays. For each transfection condition: • the total amount of transfected DNA was kept constant at 1 μg per mL of cell culture to be transfected; whenever necessary, salmon sperm DNA (Invitrogen, cat #15632011) was used as ‘carrier’ DNA to supplement plasmid DNA (i.e., biosensor and receptor); • the PEI (polyethylenimine 25 kDa linear, PolyScience, cat #23966) to DNA ratio (ug:ug) was fixed at 3:1.
(§6) Transfections were carried out as follows: • DNA and PEI were first diluted separately in 150 mM NaCl. The volume of the diluent in each tube corresponds to 5% of the cell culture volume to be transfected. • Once DNA and PEI were diluted, the PEI-containing solution was added to the DNA solution and the DNA/PEI mixture immediately vortexed for 5 seconds. • The DNA/PEI mixture was incubated for at least 20 minutes at room temperature to allow for the formation of DNA/PEI complexes. • During the incubation, HEK293 cells were detached, counted and re-suspended in culture medium (composition specified above). • At the end of the incubation period, the DNA/PEI mixture was added to the cells. • Cells were finally distributed in 96-well plates (White Opaque 96-well/Microplates, Greiner, cat #655083 or CulturPlate-96, White Opaque 96-well Microplate, PerkinElmer, cat #6005688) at a density of 30,000 cells per well.
(§7) At 48 hours post-transfection: • Using 450-Select TS Biotek plate washer, culture medium was aspirated and replaced with 100 μL of Hank's Balanced Salt Solution buffer (HBSS) (Wisent, cat #319-067CL: without red phenol; with sodium bicarbonate, with calcium and magnesium, with HEPES) per well. • Plates were then incubated (equilibrated) at 37° C., 5% CO2 for 60 minutes. • Increasing doses of test compounds were then added to each well using the HP D300e digital dispenser (Tecan). All compounds were assayed at the following 12 concentrations (in nM) with each biosensor: 0.000, 0.013, 0.040, 0.120, 0.320, 0.960, 2.80, 8.00, 24.0, 70.0, 205 and 600. • Three to 5 minutes later, an assay-specific effective concentration (EC)75-80 of agonist CP55,940 (i.e., 0.1 nM and 100 nM for G[…]i2-GAPL or […]Arrestin2 (+GRK2) assay, respectively) was added to wells previously injected with test compound (i.e., previous step 3). […]
A general note: In BRET a luciferase serves as donor, and the signal depends on an acceptor being close.

For assay [2], the target named is T1, human CB1 receptor. Briefly: bioSensAll β-arrestin2 plasma membrane translocation (+GRK2) BRET biosensor assay in HEK293 cells transfected with hCB1; test compound added before EC75-80 of agonist CP55,940 (100 nM). To be noted: βArrestin2 (+GRK2) BRET biosensor, vs CP55,940 100 nM (EC75-80), read-out: CB1 wt βarr2 IC50. In kind it is cell-based. How it is done: as §1, §2, §3
ii) The multimolecular β-arrestin membrane recruitment biosensors allow for real-time spatio-temporal monitoring of β-arrestin 1 and β-arrestin 2 following GPCR activation. Specifically, these β-arrestin sensors were designed to detect the recruitment of proteins to the plasma membrane (β-arrestin PM) with localization to compartment resulting in an increased BRET signal.
as §4, §5, §6, §7

T1 sequence (P21554 whole entry): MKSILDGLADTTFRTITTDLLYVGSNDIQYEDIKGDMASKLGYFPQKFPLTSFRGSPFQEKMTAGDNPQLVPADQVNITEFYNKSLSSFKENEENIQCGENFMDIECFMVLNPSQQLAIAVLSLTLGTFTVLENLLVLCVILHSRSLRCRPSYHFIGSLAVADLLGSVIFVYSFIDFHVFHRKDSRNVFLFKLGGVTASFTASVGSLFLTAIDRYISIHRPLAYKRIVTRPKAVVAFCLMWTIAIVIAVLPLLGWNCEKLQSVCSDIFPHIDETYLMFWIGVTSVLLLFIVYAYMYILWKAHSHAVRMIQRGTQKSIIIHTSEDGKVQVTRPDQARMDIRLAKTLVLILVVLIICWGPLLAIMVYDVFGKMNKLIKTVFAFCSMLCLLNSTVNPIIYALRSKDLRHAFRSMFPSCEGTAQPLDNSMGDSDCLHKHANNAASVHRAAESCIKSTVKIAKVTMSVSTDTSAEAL

Broadly, the IC50 is the midpoint of a concentration-inhibition curve. As to `OCCCOc1nc(N2CCC(C(F)(F)F)CC2)c2nc(-c3ccccc3Cl)n(-c3ccc(Cl)cc3)c2n1` [Compound 23, 3-[8-(2-chlorophenyl)-9-(4-chlorophenyl)-6-[4-(trifluoromethyl)-1-piperidyl]purin-2-yl]oxypropan-1-ol], the IC50 on human CB1 receptor [1] was 0.846 nM; at human CB1 receptor [2] it was 4.36 nM.
Taken in the same sequence, the figures for `CC(C)C(=O)Nc1nc(N2CCC(C)(C#N)CC2)c2nc(-c3ccccc3Cl)n(-c3ccc(Cl)cc3)c2n1` [Compound 89, N-[8-(2-chlorophenyl)-9-(4-chlorophenyl)-6-(4-cyano-4-methyl-1-piperidyl)purin-2-yl]-2-methyl-propanamide] were 0.789 nM and 2.31 nM.
Taken in the same sequence, the figures for `CNCCOc1nc(N2CCC(C(N)=O)CC2)c2nc(-c3ccccc3Cl)n(-c3ccc(Cl)cc3)c2n1` [Compound 156] were 54.7 nM and over 5000 nM.
`CN(CCO)c1nc(N2CCC3(CCNC3=O)CC2)c2nc(-c3ccccc3Cl)n(-c3ccc(Cl)cc3)c2n1` [Compound 186]: the IC50 on human CB1 receptor [1] came out at 0.407 nM; at human CB1 receptor [2], 4.92 nM.
Regarding `CC(C)(O)COc1nc(NCC(N)=O)c2nc(-c3ccccc3Cl)n(-c3ccc(Cl)cc3)c2n1` [Compound 100], the IC50 at human CB1 receptor [1] and on human CB1 receptor [2] was over 5000 nM in each case.
`C[C@@H]1COCCN1c1nc(OCC(C)(C)O)nc2c1nc(-c1ccccc1Cl)n2-c1ccc(Cl)cc1` [Compound 212]: the IC50 on human CB1 receptor [1] worked out at 2.51 nM; at human CB1 receptor [2], 25.9 nM.
On the same counts, the results for `O=S1(=O)CCC(Nc2nc(N3CCC[C@H]3CO)nc3c2nc(-c2ccccc2Cl)n3-c2ccc(Cl)cc2)CC1` [Compound 166] are 0.308 nM and 1.4 nM.
Turning to `CN(CCO)c1nc(-c2ccc(C(F)(F)F)nc2)c2nc(-c3ccccc3Cl)n(-c3ccc(Cl)cc3)c2n1` [Compound 165], the IC50 on human CB1 receptor [1] came out at 0.413 nM; at human CB1 receptor [2] it was 2.03 nM.
`CC1(C(N)=O)CCN(c2nc(N3CCC[C@H]3CO)nc3c2nc(-c2ccc(C#N)cc2)n3-c2ccc(Cl)cc2)CC1` [Compound 36, 1-[9-(4-chlorophenyl)-8-(4-cyanophenyl)-2-[(2S)-2-(hydroxymethyl)pyrrolidin-1-yl]purin-6-yl]-4-methyl-piperidine-4-carboxamide]: the IC50 at human CB1 receptor [1] was found to be 0.686 nM; on human CB1 receptor [2] it was 1.52 nM.
Taken in the same sequence, the figures for `CN(CCO)c1nc(N2CCC(C)(C(N)=O)CC2)c2nc(-c3cncn3C)n(-c3ccc(Cl)cc3)c2n1` [Compound 58, 1-[9-(4-chlorophenyl)-2-[2-hydroxyethyl(methyl)amino]-8-(3-methylimidazol-4-yl)purin-6-yl]-4-methyl-piperidine-4-carboxamide] were 6.91 nM and 515 nM.
On the same counts, the results for `C[C@@H]1CN(c2nc(OCC(C)(C)O)nc3c2nc(-c2ccccc2Cl)n3-c2ccc(Cl)cc2)CCO1` [Compound 206] are 0.782 nM and 6.99 nM.
Taken in the same sequence, the figures for `FC(F)(F)C1CCN(c2nc(N3C[C@H]4CCC[C@H]4C3)nc3c2nc(-c2ccccc2Cl)n3-c2ccc(Cl)cc2)CC1` [Compound 30, 2-[(3aS,6aR)-3,3a,4,5,6,6a-hexahydro-1H-cyclopenta[c]pyrrol-2-yl]-8-(2-chlorophenyl)-9-(4-chlorophenyl)-6-[4-(trifluoromethyl)-1-piperidyl]purine] were 14.4 nM and 60 nM.
Regarding `CC1(C(N)=O)CCN(c2nc(NCCS(C)(=O)=O)nc3c2nc(-c2ccccc2Cl)n3-c2ccc(Cl)cc2)CC1` [Compound 11, 1-[8-(2-chlorophenyl)-9-(4-chlorophenyl)-2-(2-methylsulfonylethylamino)purin-6-yl]-4-methyl-piperidine-4-carboxamide], the IC50 on human CB1 receptor [1] was 2.01 nM; on human CB1 receptor [2] it was 30.1 nM.
For the compound `CC1(C(N)=O)CCN(c2nc(-n3cnc(CO)c3)nc3c2nc(-c2ccccc2Cl)n3-c2ccc(Cl)cc2)CC1` [Compound 46, 1-[8-(2-chlorophenyl)-9-(4-chlorophenyl)-2-[4-(hydroxymethyl)imidazol-1-yl]purin-6-yl]-4-methyl-piperidine-4-carboxamide], the half-maximal inhibitory concentration (IC50) was found to be 1.82 nM at human CB1 receptor [1] and 9.64 nM on human CB1 receptor [2].
On the same counts, the results for `O=S1(=O)CCC(Nc2nc(-n3ccnc3)nc3c2nc(-c2ccccc2Cl)n3-c2ccc(Cl)cc2)CC1` [Compound 164] are 1.66 nM and 22.8 nM.
Regarding `CC(C)(O)COc1nc(N2CCC(C)(C(N)=O)CC2)c2nc(-c3ccc(C#N)cc3)n(-c3ccc(Cl)cc3)c2n1` [Compound 106, 1-[9-(4-chlorophenyl)-8-(4-cyanophenyl)-2-(2-hydroxy-2-methyl-propoxy)purin-6-yl]-4-methyl-piperidine-4-carboxamide], the concentration for half-maximal inhibition (IC50) was found to be 14 nM on human CB1 receptor [1] and 50.7 nM on human CB1 receptor [2].
On the same counts, the results for `CN(CCO)c1nc(N2CCC(C)(C(N)=O)CC2)c2nc(-c3ccccc3Cl)n(-c3ccc(Cl)cc3)c2n1` [Compound 19, 1-[8-(2-chlorophenyl)-9-(4-chlorophenyl)-2-[2-hydroxyethyl(methyl)amino]purin-6-yl]-4-methyl-piperidine-4-carboxamide] are 0.187 nM and 1.07 nM.
Consider `CC(C)(O)COc1nc(N2C[C@H]3C[C@@H]2CO3)c2nc(-c3ccccc3Cl)n(-c3ccc(Cl)cc3)c2n1` [Compound 203], for which the IC50 came out at 1.39 nM at human CB1 receptor [1] and 6.49 nM on human CB1 receptor [2].
With `CCNC1(C(N)=O)CCN(c2nc(N3CCC(CO)C3)nc3c2nc(-c2ccccc2Cl)n3-c2ccc(Cl)cc2)CC1` (centres unmarked) [Compound 153], the IC50 was 0.503 nM at human CB1 receptor [1] and 1.29 nM on human CB1 receptor [2].
As to `CN(CC(C)(C)O)c1nc(N2CCC(C(F)(F)F)CC2)c2nc(-c3ccccc3Cl)n(-c3ccc(Cl)cc3)c2n1` [Compound 38, 1-[[8-(2-chlorophenyl)-9-(4-chlorophenyl)-6-[4-(trifluoromethyl)-1-piperidyl]purin-2-yl]-methyl-amino]-2-methyl-propan-2-ol], the half-maximal inhibitory concentration (IC50) on human CB1 receptor [1] was 1.67 nM; at human CB1 receptor [2], 6.48 nM.
Turning to `CCN1CCN(c2nc(OCC(C)(C)O)nc3c2nc(-c2ccccc2Cl)n3-c2ccc(Cl)cc2)CC1` [Compound 240], the IC50 at human CB1 receptor [1] was 5.79 nM; at human CB1 receptor [2] it was 12.2 nM.
On to `CN(CCO)c1nc(N2CCC(C(N)=O)CC2)c2nc(-c3ccccc3Cl)n(-c3ccc(Cl)cc3)c2n1` [Compound 155], for which the IC50 at human CB1 receptor [1] turned out to be 1.01 nM; at human CB1 receptor [2], 14.8 nM.
With `CN1C[C@H](Oc2nc(N3CCC(C)(C(N)=O)CC3)c3nc(-c4ccccc4Cl)n(-c4ccc(Cl)cc4)c3n2)C[C@H]1CO` [Compound 236], the results for the IC50 on human CB1 receptor [1] and at human CB1 receptor [2] were 2.89 nM and 22.8 nM, respectively.
Turning to `CCNC1(C(N)=O)CCN(c2nc(OCCO)nc3c2nc(-c2ccccc2Cl)n3-c2ccc(Cl)cc2)CC1` [Compound 142], the figures for the IC50 on human CB1 receptor [1] and on human CB1 receptor [2] were 0.892 nM and 2.6 nM, respectively.
Taken in the same sequence, the figures for `Cc1ccn(-c2nc(N3CCC(C)(C(N)=O)CC3)c3nc(-c4ccccc4Cl)n(-c4ccc(Cl)cc4)c3n2)n1` [Compound 4, 1-[8-(2-chlorophenyl)-9-(4-chlorophenyl)-2-(3-methylpyrazol-1-yl)purin-6-yl]-4-methyl-piperidine-4-carboxamide] were 2.03 nM and 10.4 nM.
